Assay [1] addresses T1, P. pastoris-expressed Der f 1 protein (Dermatophagoides farinae, UniProt P16311, D282V).
T1 construct: The Der f 1 protein secreted as a mature form by recombinant cell P. pastoris HCY215; S. cerevisiae alpha factor signal peptide (with KEX2 site and Glu-Ala spacer) (N, cleaved yes); made in house; host or cells: Pichia pastoris strain X33 transformed with pBC128 (recombinant cell HCY215)
Nature of the assay: Inhibition of rDer f 1 cysteine protease activity by E-64. Type of assay: biochemical, D. farinae. To be noted: E-64 1 μg/ml. The protocol: Native Der f 1 is believed to be a cysteine protease, based on homology to papain; see, for example, Chua et al, 1992, J Exp Med 167, 175-182. The Der f 1 protein secreted as a mature form by recombinant cell P. pastoris HCY215 (i.e., P. pastoris strain X33 transformed with plasmid pBC128 containing nucleic acid molecule nDerf1909b (coding strand of SEQ ID NO:28) which encodes the pro-form of Der f 1 (amino acid sequence SEQ ID NO:29)) was tested for cysteine protease activity in the following manner. Three concentrations of protein were tested for their abilities to cleave an artificial substrate in the presence or absence of a cysteine protease inhibitor. Specifically, three pairs of samples containing 0.56 μg, 1.1 μg, or 5.6 μg of P. pastoris-expressed Der f 1 protein, respectively, were incubated for 30 minutes at room temperature in 20 μl of 50 mM Tris-HCl, pH 8. One member of each pair also contained the irreversible cysteine protease inhibitor E-64 at a concentration of 1 μg/ml. After the pre-incubation, 100 μl of 50 μM quenched fluorogenic substrate z-Val-Leu-Arg-AMC (available from Enzyme Systems Products, Livermore, Calif.) was added to all six samples, and the samples were incubated for 2 hours at room temperature. Fluorescence was measured using a Perkin Elmer Luminescence Spectrometer (model #LS50B) at an excitation wavelength of 380nm and an emission wavelength of 460 nm.

For assay [2], the system named is IgE. The settings on record: cited from earlier work.

T1 sequence (P16311 99-321 D282V): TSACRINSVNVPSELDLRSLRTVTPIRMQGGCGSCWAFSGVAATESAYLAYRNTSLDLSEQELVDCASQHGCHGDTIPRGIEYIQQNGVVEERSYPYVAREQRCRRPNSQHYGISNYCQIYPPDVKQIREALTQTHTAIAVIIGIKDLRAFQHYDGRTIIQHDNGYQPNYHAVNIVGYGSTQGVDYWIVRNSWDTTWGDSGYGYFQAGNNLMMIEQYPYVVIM

Take `CC(C)C[C@H](NC(=O)[C@H]1O[C@@H]1C(=O)O)C(=O)NCCCCN=C(N)N` [E-64]: the figures for the “% Inhibition E-64” value in assay [1] (0.56 micrograms rDer f 1), in assay [1] (1.1 micrograms rDer f 1) and in assay [1] (5.6 micrograms rDer f 1) were 65%, 55% and 76%, respectively.

B1: S. cerevisiae-expressed Der p 1 proenzyme: Recombinant Der p 1 pro-form produced in S. cerevisiae, solubilized and renatured (Chua et al) (protein, UniProt P08176 19-320, looked up)
pro-form: RPSSIKTFEEYKKAFNKSYATFEDEEAARKNFLESVKYVQSNGGAINHLSDLSLDEFKNRFLMSAEAFEHLKTQFDLNAETNACSINGNAPAEIDLRQMRTVTPIRMQGGCGSCWAFSGVAATESAYLAYRNQSLDLAEQELVDCASQHGCHGDTIPRGIEYIQHNGVVQESYYRYVAREQSCRRPNAQRFGISNYCQIYPPNVNKIREALAQTHSAIAVIIGIKDLDAFRHYDGRTIIQRDNGYQPNYHAVNIVGYSNAQGVDYWIVRNSWDTNWGDNGYGYFAANIDLMMIEEYPYVVIL
modifications: pro-form S. cerevisiae-expressed
Turning to B1, the “sera reactive, of 11 sera reactive with the native protein” value in assay [2] (Chua et al) is recorded as 9. Besides, in assay [2] (literature reports (Chua et al 1992; Shoji et al 1996, 1997)), the “IgE reactivity relative to the native protein” value is on record as “about 80%”.

These data come from patent US8465945B2, “Method for production and use of mite group 1 proteins” (Merck Patent GmbH, priority 1999, dated 2013).
